From PubChem BioAssay AID602191 (Broad Institute, 2012)
Activity calls are given as the source filed them.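 Rule for the calls: active = fitted curve reaches 40% activation at a concentration no higher than the top valid tested dose; inconclusive = flat fit between 30% and 70% activation, or poor fit; inactive = uptake decrease, flat fit within 30% of zero, the rest.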 Residues, ends and D or L forms follow the SMILES beside them.

Molecular target: Scavenger receptor class B member 1 (Mus musculus) (UniProt Q61009)
Sequence (Q61009 whole entry, looked up): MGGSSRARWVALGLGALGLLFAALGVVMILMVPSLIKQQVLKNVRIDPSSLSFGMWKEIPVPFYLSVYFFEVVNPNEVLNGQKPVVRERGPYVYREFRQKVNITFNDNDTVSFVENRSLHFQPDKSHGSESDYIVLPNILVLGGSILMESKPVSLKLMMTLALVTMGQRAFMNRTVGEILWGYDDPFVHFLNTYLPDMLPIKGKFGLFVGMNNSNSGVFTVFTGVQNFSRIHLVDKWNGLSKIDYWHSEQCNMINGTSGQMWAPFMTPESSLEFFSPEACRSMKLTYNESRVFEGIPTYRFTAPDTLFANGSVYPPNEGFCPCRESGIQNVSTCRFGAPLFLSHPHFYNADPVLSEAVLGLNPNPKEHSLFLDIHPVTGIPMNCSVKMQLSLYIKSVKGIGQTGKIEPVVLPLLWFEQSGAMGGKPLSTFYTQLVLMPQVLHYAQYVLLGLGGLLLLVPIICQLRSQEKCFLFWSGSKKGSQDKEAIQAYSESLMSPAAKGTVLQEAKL
Test: activators of SR-BI-mediated HDL uptake, dose response, cell-based, ldlA[mSR-BI] CHO, DiI fluorescence, cherry-pick (AID 602191);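 note: cell fluorescence from internalized DiI-labeled HDL after washing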;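 for AC40: potency of activators raising HDL uptake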;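 for activation (HDL uptake increase): 0% = median of DMSO wells and 100% = twice the DMSO signal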
Settings: ldlA[mSR-BI] CHO cells, 3 h

| AC40 | Compound |
| --- | --- |
| > 35 µM (inactive) | O=C(Cc1ccc(NC(=O)C2CCN(C(=O)C3CC3)CC2)cc1)Nc1ccc(C(=O)N2CCOCC2)cc1 |
| > 35 µM (inactive) | COc1ccccc1OCCc1nnc(N)s1 |
| 29.8 µM | CCOC(=O)c1ccc(NC(=O)c2nc[nH]c2C(=O)NCCCCNC(=O)c2[nH]cnc2C(=O)Nc2ccc(C(=O)OCC)cc2)cc1 |

Same assay, conditions: ldlA[mSR-BI] CHO cells, 3 h, at 35 µM (top of the series)

| Compound | activation (HDL uptake increase) |
| --- | --- |
| C/C(=N\N1C(=O)c2ccccc2NC1c1ccco1)c1ccccc1O (centres undefined) | -54.6% (inactive) |
| Cc1c(CC(=O)O)c(=O)oc2cc(OCc3ccc(F)cc3Cl)ccc12 | 10.2% (inactive) |
| CCCCCC(=O)Nc1cc(S(=O)(=O)N2CCOCC2)ccc1N1CCCCC1 | -0.494% (inactive) |
| O=C(Nc1cccc(S(=O)(=O)NC2=NCCC2)c1)c1ccc(F)cc1F | -14.5% (inactive) |
| CC[C@H](C)[C@@H]1NC(=O)[C@H]([C@@H](C)CC)NC(=O)[C@@H](CC(C)C)NC(=O)[C@H](Cc2ccccc2)NC(=O)[C@H](Cc2ccccc2)NC(=O)[C@@H]2CCCN2C(=O)[C@@H]2CCCN2C(=O)[C@H](C(C)C)NC(=O)[C@H](CC(C)C)NC1=O (HELM PEPTIDE1{F.F.[dL].I.I.L.V.P.P}$PEPTIDE1,PEPTIDE1,1:R1-9:R2$$$V2.0) | 5.97% (inactive) |
| O=C(Cc1ccc(S(=O)(=O)N2CCOCC2)s1)OCc1ccc(Cl)cc1 | -16.7% (inactive) |
| O=C(CNC(=O)c1cncc(Br)c1)Nc1ccc(F)c(F)c1F | -11% (inactive) |
| Cc1ccc(OCC(=O)N(C)CC(=O)NCc2ccco2)c(Br)c1 | -24.2% (inactive) |
| NC(=O)C1CCN(C(=O)c2ccc(NS(=O)(=O)c3ccc(F)c(F)c3)cc2)CC1 | -2.55% (inactive) |
| C=CCOC(=O)C1=C[C@H](c2ccc(C(F)(F)F)cc2)C[C@H](OCCCCO)O1 | -10.3% (inactive) |
| Cc1[nH]c2ccccc2c1C(=O)CSC(=S)N(C)C1CCCCC1 | -5.9% (inactive) |
| Cc1c(C(=O)N(C)C(C)c2ccncn2)oc2c(F)cccc12 (centres undefined) | -9.31% (inactive) |
| Nc1ncnc2c1ncn2[C@@H]1O[C@H](CNCc2cccn2-c2nccs2)[C@@H](O)[C@H]1O | 10.3% (inactive) |
| Cc1cccc(N2CCN(C(=S)c3ccc(-c4ccccc4[N+](=O)[O-])o3)CC2)c1 | -6.03% (inactive) |
| CC1CCC(NC(=O)CCNS(=O)(=O)c2ccccc2)CC1 (centres undefined) | 10.2% (inactive) |
| Cc1nc(C2CCCCC2)c(-c2ccccc2)c(N2CCOC2=O)c1C | 1.15% (inactive) |
| Cc1cc(C)nc(Nc2ncc(O)n2-c2ccccc2)n1 | -7.64% (inactive) |
| CCOC(=O)C1CCCN(C(=O)c2cc(S(=O)(=O)N3CCCCCC3)ccc2OC)C1 (centres undefined) | -9.78% (inactive) |
| NC(=O)C1CCN(C(=O)C2CC(=O)N(c3ccc4c(c3)OCCO4)C2)CC1 (centres undefined) | -4.66% (inactive) |

| Compound | activation (HDL uptake increase) |
| --- | --- |
| O=C(NC(=S)N(Cc1ccccc1)Cc1ccccc1)c1ccccc1F | -11.7% (inactive) |
| CCC1C(=O)NCCN1C(=O)c1ccc(OC)c(OC2CCN(C(C)=O)CC2)c1 (centres undefined) | -6.7% (inactive) |
| Cc1cc(C)c2[nH]c(=O)c(CN(CC3CCCO3)C(=O)c3cnccn3)cc2c1 (centres undefined) | -7.36% (inactive) |
| CCN1C(=O)C(CC(=O)NC2CCCCC2)N(CC)C1=O (centres undefined) | 7.58% (inactive) |
| O=C(CNC(=O)c1ccc(Cl)cc1)NCC(F)(F)F | -9.51% (inactive) |
| Cc1ccc(C(C(=O)NC2CCCC2)N(Cc2ccc(F)cc2)C(=O)c2csnn2)o1 (centres undefined) | 6.32% (inactive) |
| O=C(O)CN(Cc1ccco1)S(=O)(=O)c1ccc(F)cc1 | -1.5% (inactive) |
| CN1CCN(C(=O)C2CCCN(S(=O)(=O)c3ccc(Br)cc3)C2)CC1 (centres undefined) | -5.87% (inactive) |
| CC(=O)N1CCN(S(=O)(=O)c2cccc(C(=O)Nc3cc(C(F)(F)F)ccc3N3CCOCC3)c2)CC1 | -3.42% (inactive) |
| CN(C)CCN(C(=O)CN1C(=O)c2ccccc2C1=O)c1nc2cc3c(cc2s1)OCCO3 | -2.04% (inactive) |
| COc1cccc(OC)c1C(=O)N1CCN(Cc2ccccc2C)CC1 | -7.18% (inactive) |
| Cc1c(C)c2ccc(OCC(=O)NC(Cc3c[nH]c4ccc(O)cc34)C(=O)O)c(C)c2oc1=O (centres undefined) | -0.695% (inactive) |
| Cc1cccc(C)c1NC(=O)N1C2CCCC1CC(NC(=O)C(C)(C)C)C2 (centres undefined) | 5.39% (inactive) |
| N#Cc1ccc(OCCOCCNC2CCCC2)cc1 | 13.4% (inactive) |
| CCOC(=O)C1CCCN(C(=S)Nc2cccc(Cl)c2C)C1 (centres undefined) | -3.98% (inactive) |
| CN1CCN(S(=O)(=O)c2cccc(C(=O)NC3(C)CCS(=O)(=O)C3)c2)CC1 (centres undefined) | -5.92% (inactive) |
| CC(C)CCNC(=O)c1onc(CSc2ccncc2)c1C(=O)NCCC(C)C | 3.64% (inactive) |
| O=C(CC1C(=O)NCCN1Cc1ccc(Cl)c(F)c1)NC1CCCCC1 (centres undefined) | -11.9% (inactive) |
| CCN1C(=O)C2C(c3cccc(F)c3)NC(CC)(C(=O)OC)C2C1=O (centres undefined) | -4.79% (inactive) |

The remaining lines, values ahead:

| activation (HDL uptake increase) | Compound |
| --- | --- |
| 4.83% (inactive) | COc1ccc(N(C(=O)CNC(=O)c2ccco2)C(C(=O)NC2CCCCC2)c2ccncc2)cc1 (centres undefined) |
| -12.6% (inactive) | COCCn1c(=O)[nH]c2cc(C(=O)N3CCN(c4ccccc4OC)CC3)ccc2c1=O |
| -7.37% (inactive) | COc1ccccc1Cc1nnnn1CC(=O)O |
| 15.1% (inactive) | COc1ccc2c(CC(=O)NCC3CCC(C(=O)O)CC3)cc(=O)oc2c1 (centres undefined) |
| -5.94% (inactive) | CCN(CC(=O)Nc1c(F)cccc1F)C(=O)CCCc1nc2ccccc2c(=O)[nH]1 |
| -5.05% (inactive) | COc1ccc(-n2nc(C(=O)N3CCN(Cc4ccc5c(c4)OCO5)CC3)c3ccccc3c2=O)cc1 |
| -5.82% (inactive) | COc1ccccc1OCC(=O)OCc1cc(-c2ccco2)on1 |
| 11.7% (inactive) | COc1ccc(-n2nc(C(=O)NCC(=O)O)c3ccccc3c2=O)cc1 |
| 1.77% (inactive) | CCN1C[C@@H]2[C@@H]3C(=O)N(Cc4ccccc4)C(=O)[C@@H]3[C@](C)(C1=O)N2C(=O)c1ccc(Br)cc1 |
| -14.1% (inactive) | COc1ccc(NC(=O)COC(=O)c2cc(SC)ccc2Cl)c(OC)c1 |
| -8.82% (inactive) | COc1ccccc1CN1C(=O)CCC1(C)C(=O)NCc1cccnc1 (centres undefined) |
| -20.1% (inactive) | Cc1ccc(-n2ncc3c(=O)n(CC(=O)N4CCN(c5ccccc5F)CC4)cnc32)cc1C |
| -13.2% (inactive) | CCn1c(COC(=O)CNC(=O)c2ccccc2)nc2cc(S(=O)(=O)N(C)C)ccc21 |
| -4.44% (inactive) | COc1ccc(N2C(=O)C(CC(=O)Nc3ccc(F)cc3)N(CCc3cccs3)C2=O)cc1 (centres undefined) |
| 5.61% (inactive) | O=C(NCCCc1ccccc1)c1ccc(CS(=O)Cc2ccc(Cl)cc2)o1 (centres undefined) |
| -5.97% (inactive) | O=C(CNC(=O)c1ccco1)NCCCc1ccccc1 |
| 1.17% (inactive) | CCCC(=O)Nc1cc(C(=O)O)ccc1S(=O)(=O)c1ccc(C)cc1 |
| -10.5% (inactive) | COc1ccc(C(=O)NNS(=O)(=O)c2ccccc2)cc1OC |
